Data on two molecules can be found in publication PMC2716488, “Functional Expression of a DNA-Topoisomerase IB from Cryptosporidium parvum” (Journal of Biomedicine and Biotechnology, 2009).

The test addresses T1, CpTopIB (Cryptosporidium parvum, UniProt Q5CY81).
T1 construct: gene cgd7_3350; expressed from YCpGAL in S. cerevisiae EKY3 (top1 deleted), purified on phosphocellulose and phenyl-sepharose; monomer; no tag mentioned
T1 sequence (Q5CY81 13-653): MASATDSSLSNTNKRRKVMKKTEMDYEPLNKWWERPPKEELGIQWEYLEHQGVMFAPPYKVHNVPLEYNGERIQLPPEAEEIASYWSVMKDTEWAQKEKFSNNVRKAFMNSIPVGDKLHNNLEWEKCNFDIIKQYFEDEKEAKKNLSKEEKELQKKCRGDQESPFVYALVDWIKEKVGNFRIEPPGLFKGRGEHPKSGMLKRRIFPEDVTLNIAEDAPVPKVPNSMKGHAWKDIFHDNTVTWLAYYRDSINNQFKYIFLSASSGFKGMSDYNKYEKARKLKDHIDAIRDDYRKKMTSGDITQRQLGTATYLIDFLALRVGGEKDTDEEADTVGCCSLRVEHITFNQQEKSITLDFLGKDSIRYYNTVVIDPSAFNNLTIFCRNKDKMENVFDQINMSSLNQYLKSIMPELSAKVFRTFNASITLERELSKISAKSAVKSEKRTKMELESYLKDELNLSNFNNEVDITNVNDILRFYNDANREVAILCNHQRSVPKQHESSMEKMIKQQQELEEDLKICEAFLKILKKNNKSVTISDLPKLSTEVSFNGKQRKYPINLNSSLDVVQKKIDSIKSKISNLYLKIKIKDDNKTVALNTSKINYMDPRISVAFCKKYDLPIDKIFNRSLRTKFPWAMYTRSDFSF
The test is described as follows: DNA cleavage assay, nicked DNA on agarose gel. The note with it: supercoiled phiX174 RF I DNA, pH 7.5, 50 mM KCl, 1% DMSO, 30 or 37°C; stabilises the enzyme-DNA cleavable complex. It is filed as biochemical.

On to `CC[C@@]1(O)C(=O)OCc2c1cc1n(c2=O)Cc2cc3ccccc3nc2-1` [CPT, camptothecin], for which the “nicked-DNA increase at 10 and 100 μM” value was “There is a dose-dependent nicked-DNA increase for CPT and topotecan”.
Turning to `CC[C@@]1(O)C(=O)OCc2c1cc1n(c2=O)Cc2cc3c(CN(C)C)c(O)ccc3nc2-1` [topotecan], the “nicked-DNA increase at 10 and 100 μM” value was “There is a dose-dependent nicked-DNA increase for CPT and topotecan”.
